According to patent US20030171386A1, “Small molecules for the treatment of abnormal cell growth” (Pfizer Inc., priority 2001, published 2003):

How the values were obtained:
[1] = target: T1, chimeric EGFR/erbB2 kinase (Homo sapiens, UniProt P04626); assay: erbB2 receptor autophosphorylation, in vitro cell assay in transfected 3T3 cells; type: cell-based; details: intact 3T3 cells transfected with chimeric EGFR/erbB2 kinase; EGF-stimulated phosphotyrosine; read-out: Potency (IC50) for the erbB2 receptor
T1 construct: EGFR extracellular/erbB2 intracellular; expressed in transfected cells; host or cells: 3T3 cells; the other entry of the earlier key: EGFR (P00533, Epidermal growth factor receptor)
T1 sequence (P04626 720-1255 limits assumed, change not shown): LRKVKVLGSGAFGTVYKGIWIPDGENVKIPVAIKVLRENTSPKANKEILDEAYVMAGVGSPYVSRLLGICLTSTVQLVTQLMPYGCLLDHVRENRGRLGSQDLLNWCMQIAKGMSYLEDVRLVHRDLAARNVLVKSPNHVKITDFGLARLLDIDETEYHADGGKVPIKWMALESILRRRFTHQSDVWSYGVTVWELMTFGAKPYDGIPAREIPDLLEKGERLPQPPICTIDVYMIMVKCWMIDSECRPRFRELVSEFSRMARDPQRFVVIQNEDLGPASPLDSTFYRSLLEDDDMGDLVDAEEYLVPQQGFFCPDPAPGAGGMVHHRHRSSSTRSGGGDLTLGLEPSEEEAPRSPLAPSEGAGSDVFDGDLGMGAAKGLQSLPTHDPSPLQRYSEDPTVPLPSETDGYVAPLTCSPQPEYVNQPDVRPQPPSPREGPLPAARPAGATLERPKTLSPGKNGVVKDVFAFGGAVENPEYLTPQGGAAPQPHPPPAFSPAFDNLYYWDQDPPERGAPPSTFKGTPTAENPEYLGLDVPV
Description: The in vitro activity of small molecule compounds as erbB kinase inhibitors in intact cells may be determined by the following procedure. Cells, for example 3T3 cells transfected with human EGFR (Cohen et al. J. Virology 67:5303, 1993) or with chimeric EGFR/erbB2 kinase (EGFR extracellular/erbB2 intracellular, Fazioli et al. Mol. Cell. Biol. 11: 2040, 1991) are plated in 96-well plates at 12,000 cells per well in 100 μl medium (Dulbecco's […] (DMEM) with 5% fetal calf serum, 1% pen/streptomycin, 1% L-glutamine) and incubated at 37° C., 5% CO2 Test compounds are solubilized in DMSO at a concentration of 10 mM, and tested at final concentrations of 0, 0.3 μM, 1 μM, […], 0.1 μM and 10 μM in the medium. The cells are incubated at 37° C. for 2 h. EGF (40 ng/ml final) is added to each well and cells incubate at room temperature for 15 min followed by aspiration of medium, then 100 μl/well cold fixative (50% ethanol/50% acetone containing 200 micromolar sodium orthovanadate) is added. The plate is incubated for 30 min at room temperature followed by washing with wash buffer (0.5% Tween 20 in phosphate buffered saline). Blocking buffer (3% bovine serum albumin, 0.05% Tween 20, 200 μM sodium orthovanadate in phosphate buffered saline, 100 μl/well) is added followed by incubation for 2 hours at room temperature followed by two washes with wash buffer. PY54 monoclonal anti-phosphotyrosine antibody directly conjugated to horseradish peroxidase (50 μl/well, 1 μg/ml in blocking buffer) or blocked conjugate (1 μg/ml with 1 mM phosphotyrosine in blocking buffer, to check specificity) is added and the plates incubated for 2 hours at room temperature. The plate wells are then washed 4 times with wash buffer. The colorimetric signal is developed by addition of TMB Microwell Peroxidase Substrate (Kirkegaard and Perry, Gaithersburg, Md.), 50 μl per well, and stopped by the addition of 0.09 M sulfuric acid, 50 μl per well. Absorbance at 450 nm represents phosphotyrosine content of proteins. The increase in signal in EGF-treated cells over control (non-EGF treated) represents the activity of the EGFR or EGFR/chimera respectively. The potency of an inhibitor is determined by measurement of the concentration of compound needed to inhibit the increase in phosphotyrosine by 50% (IC50) in each cell line. The selectivity of the compounds for erbB2 vs. EGFR is determined by comparison of the IC50 for the EGFR transfectant vs. that for the erbB2/EGFR chimera transfectant. Thus, for example, a compound with an IC50 of 100 nM for the EGFR transfectant and 10 nM for the erbB2/EGFR chimera transfectant is considered 10-fold selective for erbB2 kinase.
(§1) The IC50 values for the inhibition of erbB1 receptor autophosphorylation and erbB2 receptor autophophorylation were determined using the in vitro cell assays described above.

human EGFR = target: T2, human EGFR (Homo sapiens, UniProt P00533); assay: erbB1 receptor autophosphorylation, in vitro cell assay in transfected 3T3 cells, used for the erbB2 versus erbB1 selectivity ratio; type: cell-based; details: comparison of IC50 for EGFR transfectant vs. erbB2/EGFR chimera transfectant
T2 construct: expressed in transfected cells; host or cells: 3T3 cells
T2 sequence (P00533 25-1210): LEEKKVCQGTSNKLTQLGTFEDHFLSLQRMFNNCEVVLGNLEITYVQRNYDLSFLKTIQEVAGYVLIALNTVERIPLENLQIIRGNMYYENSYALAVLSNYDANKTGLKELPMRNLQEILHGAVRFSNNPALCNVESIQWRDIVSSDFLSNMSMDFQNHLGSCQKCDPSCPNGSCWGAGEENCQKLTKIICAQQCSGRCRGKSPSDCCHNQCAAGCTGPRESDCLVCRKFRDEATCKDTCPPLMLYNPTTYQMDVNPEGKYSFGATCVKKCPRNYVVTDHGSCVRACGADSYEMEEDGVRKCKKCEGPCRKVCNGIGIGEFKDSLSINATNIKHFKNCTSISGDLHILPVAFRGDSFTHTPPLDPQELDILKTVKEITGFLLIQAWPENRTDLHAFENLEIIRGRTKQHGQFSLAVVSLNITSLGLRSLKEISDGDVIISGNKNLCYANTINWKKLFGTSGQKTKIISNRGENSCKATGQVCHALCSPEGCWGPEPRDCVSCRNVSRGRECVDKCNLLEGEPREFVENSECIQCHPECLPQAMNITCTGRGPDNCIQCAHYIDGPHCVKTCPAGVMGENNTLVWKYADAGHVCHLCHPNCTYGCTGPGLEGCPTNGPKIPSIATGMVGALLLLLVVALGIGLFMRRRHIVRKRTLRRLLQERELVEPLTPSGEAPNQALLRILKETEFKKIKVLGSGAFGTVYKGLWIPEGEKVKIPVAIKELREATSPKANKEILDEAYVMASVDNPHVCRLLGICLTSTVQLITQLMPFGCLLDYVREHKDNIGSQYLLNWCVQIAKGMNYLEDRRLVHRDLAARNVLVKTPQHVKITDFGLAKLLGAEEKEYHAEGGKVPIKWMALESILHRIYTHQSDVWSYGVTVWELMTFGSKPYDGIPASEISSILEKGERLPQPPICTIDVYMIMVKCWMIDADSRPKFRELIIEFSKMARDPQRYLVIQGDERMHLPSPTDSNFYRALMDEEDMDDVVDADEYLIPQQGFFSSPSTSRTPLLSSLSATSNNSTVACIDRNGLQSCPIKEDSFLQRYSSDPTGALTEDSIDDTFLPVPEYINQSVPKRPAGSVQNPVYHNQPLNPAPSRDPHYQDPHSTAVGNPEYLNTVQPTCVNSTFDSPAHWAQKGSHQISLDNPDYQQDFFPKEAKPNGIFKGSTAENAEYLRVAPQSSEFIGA
Description: The in vitro activity of small molecule compounds as erbB kinase inhibitors in intact cells may be determined by the following procedure. […] The cells are incubated at 37° C. for 2 h. EGF (40 ng/ml final) is added to each well and cells incubate at room temperature for 15 min followed by aspiration of medium, then 100 μl/well cold fixative (50% ethanol/50% acetone containing 200 micromolar sodium orthovanadate) is added. The plate is incubated for 30 min at room temperature followed by washing with wash buffer (0.5% Tween 20 in phosphate buffered saline). Blocking buffer (3% bovine serum albumin, 0.05% Tween 20, 200 μM sodium orthovanadate in phosphate buffered saline, 100 μl/well) is added followed by incubation for 2 hours at room temperature followed by two washes with wash buffer. PY54 monoclonal anti-phosphotyrosine antibody directly conjugated to horseradish peroxidase (50 μl/well, 1 μg/ml in blocking buffer) or blocked conjugate (1 μg/ml with 1 mM phosphotyrosine in blocking buffer, to check specificity) is added and the plates incubated for 2 hours at room temperature. The plate wells are then washed 4 times with wash buffer. The colorimetric signal is developed by addition of TMB Microwell Peroxidase Substrate (Kirkegaard and Perry, Gaithersburg, Md.), 50 μl per well, and stopped by the addition of 0.09 M sulfuric acid, 50 μl per well. […] The increase in signal in EGF-treated cells over control (non-EGF treated) represents the activity of the EGFR or EGFR/chimera respectively. […] The selectivity of the compounds for erbB2 vs. EGFR is determined by comparison of the IC50 for the EGFR transfectant vs. that for the erbB2/EGFR chimera transfectant.
as §1

[2] = clinical trials, patients; cited from earlier work

| Structure (SMILES) | IC50 [1] [nM] | erbB2/erbB1 ratio (selectivity) (human EGFR) | dermal toxicity (rash) [2] |
| --- | --- | --- | --- |
| CCNC(=O)NCC#Cc1ccc2ncnc(Nc3ccc(Oc4cccnc4)c(Cl)c3)c2c1 [Example 12, 1-(3-{4-[3-Chloro-4-(pyridin-3-yloxy)-phenylamino]-quinazolin-6-yl}-prop-2-ynyl)-3-ethyl-urea] | 21 to 50 | 121 | – |
| Cc1cc(Nc2ncnc3ccc(C#CCNC(=O)CN(C)C)cc23)ccc1Oc1cccnc1 [Example 13, 2-Dimethylamino-N-(3-{4-[3-methyl-4-(pyridin-3-yloxy)-phenylamino]-quinazolin-6-yl}-prop-2-ynyl)-acetamide] | < 20 | 182 | – |
| Cc1cc(Nc2ncnc3ccc(C#CC4CCNCC4)cc23)ccc1Oc1cccnc1 [Example 14, [3-Methyl-4-(pyridin-3-yloxy)-phenyl]-(6-piperidin-4-ylethynyl-quinazolin-4-yl)-amine] | 21 to 50 | 196 | – |
| C=CC(=O)Nc1cc2c(Nc3ccc(F)c(Cl)c3)ncnc2cc1OCCCN1CCOCC1 [CI-1033] | – | – | dermal toxicity in the form of a rash occurs |
| COCC(=O)NCC#Cc1ccc2ncnc(Nc3ccc(Oc4cccc(OC)c4)c(C)c3)c2c1 [Example 3, 2-Methoxy-N-(3-{4-[4-(3-methoxy-phenoxy)-3-methyl-phenylamino]-quinazolin-6-yl}-prop-2-ynyl)-acetamide] | 21 to 50 | 103 | – |
| COc1cc2ncnc(Nc3ccc(F)c(Cl)c3)c2cc1OCCCN1CCOCC1 [ZD1839] | – | – | this adverse event was observed |
| COC1CCN(C(=O)NC(C)(C)C#Cc2ccc3ncnc(Nc4ccc(Oc5ccc(C)nc5)c(C)c4)c3c2)C1 (stereo not drawn) [Example 8, 3-Methoxy-pyrrolidine-1-carboxylic acid (1,1-dimethyl-3-{4-[3-methyl-4-(6-methyl-pyridin-3-yloxy)-phenylamino]-quinazolin-6-yl}-prop-2-ynyl)-amide] | 51 to 100 | 308 | – |
| CC(=O)C(=O)NCC#Cc1ccc2ncnc(Nc3cnc(Oc4ccccc4)c(C)c3)c2c1 [Example 1, N-{3-[4-(5-Methyl-6-phenoxy-pyridin-3-ylamino)-quinazolin-6-yl]-prop-2-ynyl}-2-oxo-propionamide] | < 20 | 101 | – |
| CCOc1cc2ncc(C#N)c(Nc3ccc(F)c(Cl)c3)c2cc1NC(=O)/C=C/CN(C)C [EKB-569] | – | – | dermal toxicity in the form of a rash occurs |
| C#Cc1cccc(Nc2ncnc3cc(OCCOC)c(OCCOC)cc23)c1 [CP-358,774] | – | – | this adverse event was observed |

Second part, led by results:

| IC50 [1] [nM] | erbB2/erbB1 ratio (selectivity) (human EGFR) | Structure (SMILES) | dermal toxicity (rash) [2] |
| --- | --- | --- | --- |
| 21 to 50 | 112 | CCNC(=O)NCC#Cc1ccc2ncnc(Nc3ccc(Oc4cccnc4)c(C)c3)c2c1 [Example 10, 1-Ethyl-3-(3-{4-[3-methyl-4-(pyridin-3-yloxy)-phenylamino]-quinazolin-6-yl}-prop-2-ynyl)-urea] | – |
| 21 to 50 | 216 | Cc1ccc(Oc2ccc(Nc3ncnc4ccc(C#CCNC(=O)c5cc(C)no5)cc34)cc2C)cn1 [Example 16, 3-Methyl-isoxazole-5-carboxylic acid (3-{4-[3-methyl-4-(6-methyl-pyridin-3-yloxy)-phenylamino]-quinazolin-6-yl}-prop-2-ynyl)-amide] | – |
| 21 to 50 | 108 | CC(=O)NC/C=C/c1ccc2ncnc(Nc3ccc(Oc4ccc(C)nc4)c(Cl)c3)c2c1 [Example 5, E-N-(3-{4-[3-Chloro-4-(6-methyl-pyridin-3-yloxy)-phenylamino]-quinazolin-6-yl}-allyl)-acetamide] | – |
| 21 to 50 | 142 | Cc1ccc(Oc2ccc(Nc3ncnc4ccc(/C=C/CNC(=O)C5CC5)cc34)cc2Cl)cn1 [Example 4, E-Cyclopropanecarboxylic acid (3-{4-[3-chloro-4-(6-methyl-pyridin-3-yloxy)-phenylamino]-quinazolin-6-yl}-allyl)-amide] | – |
| 21 to 50 | 658 | Cc1cc(Nc2ncnc3ccc(/C=C/CNC(=O)C4CC4)cc23)ccc1Oc1cccnc1 [Example 2, E-Cyclopropanecarboxylic acid (3-{4-[3-methyl-4-(pyridin-3-yloxy)-phenylamino]-quinazolin-6-yl}-allyl)-amide] | – |
| < 20 | 437 | Cc1ccc(Oc2ccc(Nc3ncnc4ccc(/C=C/CNC(=O)c5cc(C)on5)cc34)cc2C)cn1 [Example 6, E-5-Methyl-isoxazole-3-carboxylic acid (3-{4-[3-methyl-4-(6-methyl-pyridin-3-yloxy)-phenylamino]-quinazolin-6-yl}-allyl)-amide] | – |
| 21 to 50 | 122 | Cc1ccc(Oc2ccc(Nc3ncnc4ccc(/C=C/CNC(=O)C5CC5)cc34)cc2C)cn1 [Example 11, E-Cyclopropanecarboxylic acid (3-{4-[3-methyl-4-(6-methyl-pyridin-3-yloxy)-phenylamino]-quinazolin-6-yl}-allyl)-amide] | – |
| 51 to 100 | 140 | COC(=O)NCC#Cc1ccc2ncnc(Nc3ccc(Oc4cccnc4)c(C)c3)c2c1 [Example 15, (3-{4-[3-Methyl-4-(pyridin-3-yloxy)-phenylamino]-quinazolin-6-yl}-prop-2-ynyl)-carbamic acid methyl ester] | – |
| 21 to 50 | 1133 | COC(=O)NC/C=C/c1ccc2ncnc(Nc3ccc(Oc4cccnc4)c(C)c3)c2c1 [Example 7, E-(3-{4-[3-Methyl-4-(pyridin-3-yloxy)-phenylamino]-quinazolin-6-yl}-allyl)-carbamic acid methyl ester] | – |
| 21 to 50 | 116 | COCC(=O)NC/C=C/c1ccc2ncnc(Nc3ccc(Oc4ccc(C)nc4)c(C)c3)c2c1 [Example 9, E-2-Methoxy-N-(3-{4-[3-methyl-4-(6-methyl-pyridin-3-yloxy)-phenylamino]-quinazolin-6-yl}-allyl)-acetamide] | – |
